The assay has as its target T1, angiotensin converting enzyme (Rattus norvegicus, UniProt P47820).
T1 construct: from tissue; host or cells: rat blood plasma (ex vivo, after oral dosing)
T1 sequence (P47820 36-1238 limits assumed): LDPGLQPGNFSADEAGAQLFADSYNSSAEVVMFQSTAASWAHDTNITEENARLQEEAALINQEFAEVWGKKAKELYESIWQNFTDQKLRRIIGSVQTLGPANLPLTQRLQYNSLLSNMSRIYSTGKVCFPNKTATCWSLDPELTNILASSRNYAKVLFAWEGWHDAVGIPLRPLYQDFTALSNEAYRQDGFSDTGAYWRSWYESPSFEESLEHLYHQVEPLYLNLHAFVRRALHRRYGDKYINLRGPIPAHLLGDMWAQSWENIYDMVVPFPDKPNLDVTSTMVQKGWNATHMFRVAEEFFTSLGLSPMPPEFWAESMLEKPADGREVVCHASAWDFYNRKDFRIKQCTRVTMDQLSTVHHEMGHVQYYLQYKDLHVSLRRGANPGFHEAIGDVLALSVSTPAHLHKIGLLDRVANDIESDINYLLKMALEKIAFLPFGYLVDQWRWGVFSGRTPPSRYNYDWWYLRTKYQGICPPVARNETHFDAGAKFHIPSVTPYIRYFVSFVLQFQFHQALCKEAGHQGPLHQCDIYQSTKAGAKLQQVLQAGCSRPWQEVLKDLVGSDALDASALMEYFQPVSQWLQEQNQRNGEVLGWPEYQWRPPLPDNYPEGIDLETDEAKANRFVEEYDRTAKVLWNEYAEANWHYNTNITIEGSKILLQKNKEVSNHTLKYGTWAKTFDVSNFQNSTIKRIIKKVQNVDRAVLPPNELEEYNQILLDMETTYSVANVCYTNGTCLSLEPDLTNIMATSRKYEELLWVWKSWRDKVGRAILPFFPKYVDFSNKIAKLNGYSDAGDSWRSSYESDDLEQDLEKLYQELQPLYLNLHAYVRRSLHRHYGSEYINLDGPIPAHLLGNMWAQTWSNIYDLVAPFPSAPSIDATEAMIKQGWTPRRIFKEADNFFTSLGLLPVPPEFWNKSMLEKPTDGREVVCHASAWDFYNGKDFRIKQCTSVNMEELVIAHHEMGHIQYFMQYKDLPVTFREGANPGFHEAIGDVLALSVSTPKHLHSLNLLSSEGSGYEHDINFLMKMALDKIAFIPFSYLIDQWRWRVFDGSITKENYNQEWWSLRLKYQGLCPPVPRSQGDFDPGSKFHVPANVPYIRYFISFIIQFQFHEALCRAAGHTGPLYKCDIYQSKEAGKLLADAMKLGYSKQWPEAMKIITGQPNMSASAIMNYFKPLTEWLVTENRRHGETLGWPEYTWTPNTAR
Put plainly: inhibition of angiotensin converting enzyme ex vivo in rats (plasma before and 2 hours after oral administration, 14C-hippuryl-histidylleucine substrate). The following applies: for angiotensin converting enzyme is inhibited in doses smaller than the captopril dose: compared with captopril dose; for ED50: rat, plasma 2 hours after administration, read-out: ED 50% (dose which produces 50% inhibition of angiotensin converting enzyme); for relative activity: relative to captopril = 1.00, from ED 50%. The method, then: The following method was used in investigating the pharmacodynamic effect (inhibition of angiotensin converting enzyme ex vivo in rats):
Before, and 2 hours after, oral administration of the substance, blood was withdrawn from the animals, and the plasma was diluted 1:6 with H2 O. The diluted plasma (100 μl) was incubated with 50 μl of ^14 C-hippuryl-histidylleucine solution (K phosphate 260 mM, NaCl 938 mM, pH=8.3) for 1 hour at 37° C. The reaction was terminated by adding 2 ml of 0.1N HCl, and the product, ^14 C-hippuric acid, was extracted with toluene scintillator (PPO+POPOP+toluene+21% of isoamyl alcohol) and determined using a scintillation counter for liquids. After subtraction of the blank value (incubation time=0 minute), the percentage inhibition was determined from the enzymatic activities in the plasma before and after administration of the substance. The ED 50%, ie. the dose which produces 50% inhibition, is calculated from the individual inhibitory values by linear regression following logit-log transformation.

In the case of `C[C@H](NC(=O)[C@H](CSC(=O)c1ccccc1)SC(=O)c1ccccc1)C(=O)N1CCC[C@H]1C(=O)O` [Example 70, N-[(R)-2,3-Bis-(benzoylthio)-propionyl]-alanylproline], the “angiotensin converting enzyme is inhibited in doses smaller than the captopril dose” value was 5 times smaller, the ED50 was 0.2 mg/kg and the relative activity was 5.0.
On the same counts, the results for `O=C(SC[C@H](SC(=O)c1ccccc1)C(=O)N[C@@H](Cc1c[nH]c2ccccc12)C(=O)O)c1ccccc1` [Example 68, N-[(R)-2,3-Bis-(benzoylthio)-propionyl]-tryptophan] are 5 times smaller, 0.2 mg/kg and 5.0.

For the origin of these results see patent US4500467A, “Benzoylthio compounds, their preparation and their use as drugs” (BASF Aktiengesellscaft, priority 1982, dated 1985).
